The target in data set [1] is human constitutive 20S proteasome cCP, T-L activity (β2) (Homo sapiens, UniProt Q99436). In words: Inhibition of T-L activity of human cCP (substrate Boc-LRR-AMC). The following applies: for fold induction at 50 µM: pH 8, read-out: x (activation factor) at 50 μM T-L, cCP; for inhibition at 50 µM: pH 8, read-out: % inhibition at 50 μM T-L, cCP.
Method: (§7) They were assayed for in vitro inhibition of purified human cCP and iCP by measuring the hydrolysis of the β5 (ChT-L) substrate Suc-LLVY-AMC, β1 (PA) substrate Z-LLE-βNA, and β2 (T-L) substrate Boc-LRR-AMC in the presence of various concentrations of the tested molecules.
(§8) The experimental data are adjusted to equation 1 (c) or equation 2 (a, a’, b, b’, c’).
(§9) Purified human constitutive 20S proteasome cCP and human 20S immunoproteasome iCP from erythrocyte were obtained from Boston Biochem (Cambridge, USA). All fluorogenic substrates (Suc-LLVY-AMC, Boc-LRR-AMC, and Z-LLE-βNA) were obtained from Bachem (Weil am Rhein, Germany). […] Fluorescence was measured using a BMG Fluostar microplate reader (black 96-well microplates).
(§10) Substrates and compounds were previously dissolved in DMSO. The buffers were (pH 8.0): 20 mM Tris, 10% (v/v) glycerol, 0.01% (w/v) SDS, and 2% (v/v) DMSO (ChT-L and PA activities); 20 mM Tris, 10% (v/v) glycerol, 0.01% (w/v). The final iPR and cPR concentrations were 0.3 nM using 20 μM Suc-LLVY-AMC (ChT-L), 50 μM Boc-LRR-AMC (T-L) and 100 μM Z-LLE-βNA (PA). […] The enzyme and the inhibitors were incubated for 15 min before the measurement of the enzyme activity. Initial rates determined in control experiments (V0) were considered to be 100 % of the peptidase activity; initial rates (Vi) that were above 100 % in the presence of a tested compound were considered to be activations (expressed as activation factor), while initial rates below 100 % were considered to be inhibitions. […] The values of IC50 were calculated by fitting the experimental data to the equation 1 or equation 2, where nH is the Hill number.
For data set [2], the target named is human constitutive 20S proteasome cCP, PA activity (β1) (Homo sapiens, UniProt P28072). In words: Inhibition of PA activity of human cCP (substrate Z-LLE-βNA). The following applies: for inhibition at 50 µM: pH 8, read-out: % inhibition at 50 μM PA, cCP.
Method: as §7, §8, §9, §10
Data set [3] concerns the target human constitutive 20S proteasome cCP, ChT-L activity (β5) (Homo sapiens, UniProt P28074). In words: Inhibition of ChT-L activity of human cCP (substrate Suc-LLVY-AMC). The settings on record: for inhibition at 50 µM: pH 8, read-out: % inhibition at 50 μM ChT-L, cCP; for factor by which ChT-L activity of cCP is more efficiently inhibited than PA: PA vs ChT-L.
Method: as §7, §8, §9, §10
Data set [4] addresses human 20S immunoproteasome iCP, PA activity (β1) (Homo sapiens, UniProt P28065). In words: Inhibition of PA activity of human iCP (substrate Z-LLE-βNA). The following applies: for inhibition at 50 µM: pH 8, read-out: % inhibition at 50 μM PA, iCP; for ratio cCP/iCP, PA activity: IC50 cCP / IC50 iCP.
Method: as §7, §8, §9, §10
Data set [5] deals with human 20S immunoproteasome iCP, ChT-L activity (β5) (Homo sapiens, UniProt P28062). In words: Inhibition of ChT-L activity of human iCP (substrate Suc-LLVY-AMC). The settings on record: for inhibition at 50 µM: pH 8, read-out: % inhibition at 50 μM ChT-L, iCP; for ratio cCP/iCP, ChT-L activity: IC50 cCP / IC50 iCP.
Method: as §7, §8, §9, §10
In data set [6] the target is human 20S immunoproteasome iCP, T-L activity (β2) (Homo sapiens, UniProt P40306). In words: Inhibition of T-L activity of human iCP (substrate Boc-LRR-AMC). The following applies: for fold induction at 50 µM: pH 8, read-out: x (activation factor) at 50 μM T-L, iCP.
Method: We decided to explore further their properties by testing their potential to inhibit human iCP versus cCP. They were assayed for in vitro inhibition of purified human cCP and iCP by measuring the hydrolysis of the β5 (ChT-L) substrate Suc-LLVY-AMC, β1 (PA) substrate Z-LLE-βNA, and β2 (T-L) substrate Boc-LRR-AMC in the presence of various concentrations of the tested molecules.
as §8
Purified human constitutive 20S proteasome cCP and human 20S immunoproteasome iCP from erythrocyte were obtained from Boston Biochem (Cambridge, USA). All fluorogenic substrates (Suc-LLVY-AMC, Boc-LRR-AMC, and Z-LLE-βNA) were obtained from Bachem (Weil am Rhein, Germany). Other reagents and solvents were purchased from commercial sources. Fluorescence was measured using a BMG Fluostar microplate reader (black 96-well microplates).
as §10
In data set [7] the test system is MDA-MB-231 cells (breast cancer). In words: MTT cell viability assay, MDA-MB-231. It is filed as cell-based. The settings on record: for cytotoxicity at higher doses: 48 h; for CC50: Homo sapiens, 48 h treatment, MTT, read-out: LC50 (the source's name). On the procedure: (§1) We first analyzed the cytotoxic effects of B1f and B3 treatment on colon (CT-26) and breast cancer cells (MDA-MB-231 cells) using the MTT cell viability assay. B1f and B3 inhibited the viability of these cells in a dose-dependent manner after 48 h treatment. Higher doses of B1f and B3 lead to 100% cytotoxicity (Figure 4A). […] We next assessed the effect of B1f and B3 on the proliferation of these cells during 24h. […] Similarly, to evaluate whether these inhibitors can affect their invasion, tumor cells were incubated for 24 h in a microchemotaxis chamber pre-coated with collagen IV (Figure 4C) in the presence of the compounds B1f or B3.
(§2) Figure 4 Effect of compounds B1f and B3 on tumor cell proliferation and invasion A. CT-26 and MDA-MB 231 cells were treated with various concentrations of indicated compounds for 48h and cells viability was measured by MTT assay. B. Tumor cells were serum deprived overnight and then treated for 24 h with control media (None) or media containing compound B3 or B1f. Cell proliferation was assessed using Cell Titer96 non-radioactive cell proliferation assay. Results are shown as means ± S.E. of three experiments performed in triplicate. *P < 0.05. **P < 0.001. *** P < 0.0001. C. Indicated tumor cells were incubated in a microchemotaxis chamber pre-coated with collagen IV for cell invasion assay as described in the Materials and Methods section. The results are represented as the percentage of invading cells. Data are representative of 3 experiments and shown as mean ± S.E. (n=3 per group). **P < 0.001. *** P < 0.0001.
(§3) For the viability assay, CT-26 (colon cancer) and MDA-MB231 (breast cancer) cells were plated in triplicate on 96 wells plate (5.10^3/well). After treatment with indicated drugs, cells were incubated for 48 hours at 37°C and incubated with solution of 5 mg/ml of 3-(4,5-dimethylthiazol-2-yl)-2,5-diphenyltetrazolium bromide (MTT) tetrazolium substrate (Sigma) for 30 minutes at 37°C prior analysis on a microplate reader at 570. The LC50 value was defined as the drug concentration causing 50% cell death (LD = lethal dose) compared to growth of the untreated control cells. For cell proliferation, cells were plated in triplicate on 96 wells plate (5.10^3/well) under serum free conditions for 24 h. The starved cells were then incubated for 24h with fresh media containing the two selected compounds B1f and B3 that inhibit both ChT-L and PA activities of iCP and cCP. […] Proliferation level in cells was evaluated, as reported previously using the Cell Titer96 non-radioactive cell proliferation assay kit (Promega) according to manufacturer’s protocol
Background: Tetrazolium assays rely on reduction of a dye to a coloured formazan, in cell work by metabolically active cells.

For data set [8], the system named is CT-26 cells (colon cancer). In words: Cell Titer96 non-radioactive cell proliferation assay, CT-26. It is filed as cell-based. The settings on record: 10 μM, 24 h, vs control cells. The method, then:
as §1
(§4) Figure 4 Effect of compounds B1f and B3 on tumor cell proliferation and invasion A. CT-26 and MDA-MB 231 cells were treated with various concentrations of indicated compounds for 48h and cells viability was measured by MTT assay. […] Cell proliferation was assessed using Cell Titer96 non-radioactive cell proliferation assay. […]
(§5) For the viability assay, CT-26 (colon cancer) and MDA-MB231 (breast cancer) cells were plated in triplicate on 96 wells plate (5.10^3/well). After treatment with indicated drugs, cells were incubated for 48 hours at 37°C and incubated with solution of 5 mg/ml of 3-(4,5-dimethylthiazol-2-yl)-2,5-diphenyltetrazolium bromide (MTT) tetrazolium substrate (Sigma) for 30 minutes at 37°C prior analysis on a microplate reader at 570. […]

Data set [9] has as its system CT-26 cells (colon cancer). In words: Cell invasion assay, microchemotaxis chamber pre-coated with collagen IV, CT-26. It is filed as cell-based. The following applies: 10 μM, 24 h. On the procedure:
as §1, §4
(§6) Cell invasion were determined using 24-well microchemotaxis chambers precoated with 7.5 μg collagen type IV (Becton Dickinson Labware), as previously described. […] Cell invasion were quantified by determination of the number of cells that migrated directly through the membrane toward the medium containing 10% serum that was used as a chemoattractant. […]

In data set [10] the test system is CT-26 cells (colon cancer). In words: MTT cell viability assay, CT-26. Format: cell-based. The following applies: for cytotoxicity at higher doses: CT-26 cells, 48 h; for CC50: Mus musculus, CT26 cells, 48 h treatment, MTT, read-out: LC50 (the source's name). On the procedure:
as §1, §2, §3

In data set [11] the test system is MDA-MB-231 cells (breast cancer). In words: Cell Titer96 non-radioactive cell proliferation assay, MDA-MB-231. The settings on record: 10 μM, 24 h, vs control cells. It is filed as cell-based. On the procedure: as §1, §4, §5
For data set [12] the test system is unchanged. In words: Cell invasion assay, microchemotaxis chamber pre-coated with collagen IV, MDA-MB-231. Format: cell-based. The settings on record: 10 μM, 24 h. The method, then:
as §1, §4, §6

Molecules are shown by their SMILES.

One may read the IC50 as the concentration that gives 50% inhibition. A low value points to greater potency in that assay. Usually inhibition stands for the percentage by which the read-out fell short of the control. In data set [1], `CC(C)Cc1ccc(S(=O)(=O)N2CCN(c3ccc([N+](=O)[O-])cc3)CC2)cc1` [Compound B1a] had an IC50 of 10.3 µM. Also, the inhibition at 50 µM in data set [2] is less than 25%; in data set [3] it was less than 25%; in [4], 25%; in [5], less than 25%. Besides, in data set [6], the “cCP/iCP ratio for the IC50 values, T-L activity” value (“cCP/iCP ratio” below) amounted to 1.4.

Consider `Cc1ccccc1N1CCN(S(=O)(=O)c2ccc(C(C)(C)C)cc2)CC1` [Compound B1b], for which the results for the IC50 in [1] and in data set [6] were 12 µM and 2.6 ± 0.4 µM, respectively. Further, the inhibition at 50 µM in data set [2], in [3], in data set [4] and in data set [5] was less than 25% each time. Moreover, the “cCP/iCP ratio” value in data set [6] worked out at 4.6.

On to `CC(C)(C)c1ccc(S(=O)(=O)N2CCN(c3ccc(Cl)cc3[N+](=O)[O-])CC2)cc1` [Compound B1c], for which the IC50 is 8.1 µM in data set [1] and 3.3 ± 0.4 µM in data set [6]. The inhibition at 50 µM in data set [2], in data set [3], in data set [4] and in data set [5] was less than 25% throughout. For the same molecule, the “cCP/iCP ratio” value in [6] is 2.4.

Turning to `O=[N+]([O-])c1ccc(N2CCN(S(=O)(=O)c3ccc(Cl)cc3)CC2)cc1Sc1ccccn1` [Compound B1d], the fold induction at 50 µM in [1] was determined as 4.7. Besides, the inhibition at 50 µM in data set [2] was 46%; in data set [3] it was less than 25%.

In the case of `Cc1ccc(S(=O)(=O)N2CCN(c3ccc([N+](=O)[O-])c(SCc4ccco4)c3)CC2)cc1` [Compound B1e], the inhibition at 50 µM in data set [1] is less than 25%. This molecule also had an IC50 in [2] of 4.2 µM. Moreover, in data set [3], the 50% inhibitory concentration (IC50) was 2.5 µM and the “factor by which ChT-L activity of cCP is more efficiently inhibited than PA” value turned out to be 1.7. For the same molecule, in data set [4], the midpoint of inhibition, the IC50, lay at 3.3 ± 0.3 µM and the “ratio cCP/iCP, PA activity” value was determined as 1.3. Further, in data set [5], the half-inhibitory concentration (IC50) worked out at 5.5 ± 0.3 µM and the “ratio cCP/iCP, ChT-L activity” value stood at 0.55. In addition, the fold induction at 50 µM in [6] was 3.

Turning to `O=[N+]([O-])c1ccc(N2CCN(S(=O)(=O)c3ccc(Cl)cc3)CC2)cc1SCc1ccco1` [Compound B1f], the inhibition at 50 µM in [1] is less than 25%. The IC50 is 7.4 µM in data set [2], 3.2 µM in data set [3], 3.7 ± 0.2 µM in data set [4] and 5.8 ± 0.2 µM in [5]. The “cytotoxicity at higher doses” value in [7] and in [10] was 100% each time. Moreover, the CC50 in [7] was determined as 45.8 ± 5.2 µM; in data set [10], 24.4 ± 8.6 µM. Also, the effect on proliferation result in [8] and in data set [11] was “significant reduction in their proliferation” throughout. For the same molecule, the effect on invasion entry in data set [9] and in [12] was “clearly decreased their ability to invade” in each case. The “factor by which ChT-L activity of cCP is more efficiently inhibited than PA” value in data set [3] is 2.3. Also, in data set [4], the “ratio cCP/iCP, PA activity” value came out at 2. In addition, the “ratio cCP/iCP, ChT-L activity” value in data set [5] is on record as 0.45. The fold induction at 50 µM in data set [6] came to 3.

For the molecule `CC(C)(C)c1ccc(S(=O)(=O)N2CCN(c3ccc([N+](=O)[O-])c(NCc4ccccn4)c3)CC2)cc1` [Compound B1g], in data set [1], the inhibition at 50 µM is less than 25%. For the same molecule, the values for the IC50 in [2] and in data set [3] were 13.9 ± 1.4 µM and 24.6 ± 3.5 µM, respectively.

For `CC(=O)Nc1ccc(S(=O)(=O)N2CCN(c3ccc([N+](=O)[O-])c(NCCN4CCOCC4)c3)CC2)cc1` [Compound B1h], the figures for the inhibition at 50 µM in data set [1] and in data set [2] were less than 25% and 45%, respectively.

With `COc1ccc(S(=O)(=O)N2CCN(c3ccc([N+](=O)[O-])c(NCC(C)(C)C)c3)CC2)cc1OC` [Compound B1i], the inhibition at 50 µM in data set [1], in [2] and in data set [3] was less than 25% each time.

For `O=[N+]([O-])c1ccc(N2CCN(S(=O)(=O)c3ccc4ccccc4c3)CC2)cc1SCCN1CCOCC1` [Compound B2a], in data set [1], the inhibition at 50 µM was less than 25%. This molecule yielded an IC50 in data set [2] of 31.2 ± 1 µM.

As to `O=[N+]([O-])c1ccc(N2CCN(S(=O)(=O)c3ccc4ccccc4c3)CC2)cc1` [Compound B2b], in [1], the fold induction at 50 µM is 4.5. For the same molecule, the inhibition at 50 µM in data set [2] worked out at 50%; in [3], 58.9%.

Regarding `O=C(COc1ccc2ccccc2c1)N1CCN(S(=O)(=O)c2ccc([N+](=O)[O-])cc2)CC1` [Compound B3], the inhibition at 50 µM in [1] was less than 25%; in data set [6] (pH 8, read-out: % inhibition at 50 μM T-L, iCP) it was less than 25%. Further, the IC50 in [2] is 8.1 µM; in data set [3] it was 6.5 µM; in [4], 7.1 ± 0.2 µM; in data set [5] it was 6.7 ± 0.2 µM. The “cytotoxicity at higher doses” value in [7] and in [10] was 100% each time. Moreover, the CC50 is 15.4 ± 4.7 µM in [7] and 26.4 ± 1.7 µM in data set [10]. For the same molecule, the effect on proliferation result in data set [8] and in [11] was “significant reduction in their proliferation” in each case. For the same molecule, the effect on invasion entry in data set [9] and in data set [12] was “clearly decreased their ability to invade” each time.

As for `O=[N+]([O-])c1ccc(N2CCN(S(=O)(=O)Cc3ccccc3)CC2)cc1NCCN1CCOCC1` [Compound B4], the inhibition at 50 µM in data set [1], in data set [2] and in data set [3] was less than 25% each time.

Source of the values: PMC5354670, “Blockade of the malignant phenotype by β-subunit selective noncovalent inhibition of immuno- and constitutive proteasomes” (Oncotarget, 2017).
